Common to all, as to type: functional
Assay [1] relates to Mus musculus. The experiment in a line: Parenteral antimalarial activity against Plasmodium vinckei in mice (Mus musculus) measured as % cured and increase in MST (days) at 15 mg/kg dose.
The test system of assay [2] is Mus musculus. Description: Parenteral antimalarial activity against Plasmodium vinckei vinckei in mice (Mus musculus) measured as increase in mean survival time at 20 mg/kg dose.
In assay [3] the test system is Mus musculus. The experiment in a line: Oral antimalarial activity against Plasmodium vinckei vinckei in mice (Mus musculus) measured as increase in mean survival time at 50 mg/kg dose.
The test system of assay [4] is Mus musculus. The experiment in a line: Parenteral antimalarial activity against Plasmodium vinckei vinckei in mice (Mus musculus) measured as % cured and increase in MST (days) at 10 mg/kg dose.
Assay [5] concerns Mus musculus. The experiment in a line: Parenteral antimalarial activity against Plasmodium vinckei vinckei in mice (Mus musculus) measured as % cured and increase in MST (days) at 30 mg/kg dose.
For assay [6], the system named is Mus musculus. The experiment in a line: Oral antimalarial activity against Plasmodium vinckei in mice (Mus musculus) measured as % cured and increase in MST (days) at 75 mg/kg dose.
The test system of assay [7] is Mus musculus. The experiment in a line: Parenteral antimalarial activity against Plasmodium vinckei vinckei in mice (Mus musculus) measured as increase in mean survival time at 25 mg/kg dose.
The subject of assay [8] is Mus musculus. The experiment in a line: Parenteral antimalarial activity against Plasmodium vinckei vinckei in mice (Mus musculus) measured as % cured and increase in MST (days) at 25 mg/kg dose.
Assay [9] deals with Mus musculus. The experiment in a line: Oral antimalarial activity against Plasmodium vinckei vinckei in mice (Mus musculus) measured as increase in mean survival time at 75 mg/kg dose.
Assay [10] relates to Mus musculus. Description: Parenteral antimalarial activity against Plasmodium vinckei vinckei in mice (Mus musculus) measured as increase in mean survival time at 30 mg/kg dose.
Assay [11] concerns Mus musculus. Description: Oral antimalarial activity against Plasmodium vinckei in mice (Mus musculus) measured as % cured and increase in MST (days) at 25 mg/kg dose.
Assay [12] deals with Mus musculus. Description: Parenteral antimalarial activity against Plasmodium vinckei in mice (Mus musculus) measured as increase in mean survival time at 10 mg/kg dose.
Assay [13] deals with Mus musculus. Description: Parenteral antimalarial activity against Plasmodium vinckei vinckei in mice (Mus musculus) measured as % cured and increase in MST (days) at 20 mg/kg dose.
For assay [14], the system named is Mus musculus. The experiment in a line: Oral antimalarial activity against Plasmodium vinckei in mice (Mus musculus) measured as increase in mean survival time at 25 mg/kg dose.
The test system of assay [15] is Mus musculus. Description: Oral antimalarial activity against Plasmodium vinckei vinckei in mice (Mus musculus) measured as increase in mean survival time at 100 mg/kg dose.
Assay [16] has as its system Mus musculus. Description: Oral antimalarial activity against Plasmodium vinckei in mice (Mus musculus) measured as increase in mean survival time at 150 mg/kg dose.
The subject of assay [17] is Mus musculus. Description: Parenteral antimalarial activity against Plasmodium vinckei in mice (Mus musculus) measured as increase in mean survival time at 15 mg/kg dose.
Assay [18] concerns Mus musculus. Description: Oral antimalarial activity against Plasmodium vinckei vinckei in mice (Mus musculus) measured as % cured and increase in MST (days) at 100 mg/kg dose.
The subject of assay [19] is Mus musculus. The experiment in a line: Oral antimalarial activity against Plasmodium vinckei in mice (Mus musculus) measured as % cured and increase in MST (days) at 50 mg/kg dose.
Assay [20] concerns Mus musculus. The experiment in a line: Oral antimalarial activity against Plasmodium vinckei vinckei in mice (Mus musculus) measured as % cured and increase in MST (days) at 150 mg/kg dose.
Assay [21] deals with Mus musculus. Description: Parenteral antimalarial activity against Plasmodium vinckei in mice (Mus musculus) measured as % cured and increase in MST (days) at 30 mg/kg dose.
For assay [22], the system named is Mus musculus. The experiment in a line: Parenteral antimalarial activity against Plasmodium vinckei in mice (Mus musculus) measured as % cured and increase in MST (days) at 25 mg/kg dose.
In assay [23] the test system is Mus musculus. The experiment in a line: Oral antimalarial activity against Plasmodium vinckei vinckei in mice (Mus musculus) measured as % cured and increase in MST (days) at 150 mg/kg dose.
In assay [24] the test system is Mus musculus. Description: Parenteral antimalarial activity against Plasmodium vinckei vinckei in mice (Mus musculus) measured as % cured and increase in MST (days) at 15 mg/kg dose.
Assay [25] has as its system Mus musculus. The experiment in a line: Oral antimalarial activity against Plasmodium vinckei vinckei in mice (Mus musculus) measured as % cured and increase in MST (days) at 50 mg/kg dose.
Assay [26] has as its system Mus musculus. Description: Parenteral antimalarial activity against Plasmodium vinckei in mice (Mus musculus) measured as % cured and increase in MST (days) at 20 mg/kg dose.
The test system of assay [27] is Mus musculus. The experiment in a line: Oral antimalarial activity against Plasmodium vinckei in mice (Mus musculus) measured as % cured and increase in MST (days) at 75 mg/kg dose.
Assay [28] has as its system Mus musculus. Description: Oral antimalarial activity against Plasmodium vinckei in mice (Mus musculus) measured as % cured and increase in MST (days) at 25 mg/kg dose.
In assay [29] the test system is Mus musculus. Description: Parenteral antimalarial activity against Plasmodium vinckei in mice (Mus musculus) measured as increase in mean survival time at 30 mg/kg dose.
Assay [30] has as its system Mus musculus. Description: Parenteral antimalarial activity against Plasmodium vinckei vinckei in mice (Mus musculus) measured as increase in mean survival time at 25 mg/kg dose.
Assay [31] has as its system Mus musculus. Description: Parenteral antimalarial activity against Plasmodium vinckei in mice (Mus musculus) measured as increase in mean survival time at 10 mg/kg dose.
Assay [32] concerns Mus musculus. Description: Parenteral antimalarial activity against Plasmodium vinckei in mice (Mus musculus) measured as % cured and increase in MST (days) at 10 mg/kg dose.
The subject of assay [33] is Mus musculus. The experiment in a line: Oral antimalarial activity against Plasmodium vinckei vinckei in mice (Mus musculus) measured as % cured and increase in MST (days) at 100 mg/kg dose.
The test system of assay [34] is Mus musculus. The experiment in a line: Oral antimalarial activity against Plasmodium vinckei in mice (Mus musculus) measured as increase in mean survival time at 25 mg/kg dose.
Assay [35] concerns Mus musculus. The experiment in a line: Oral antimalarial activity against Plasmodium vinckei vinckei in mice (Mus musculus) measured as increase in mean survival time at 75 mg/kg dose.
Assay [36] concerns Mus musculus. Description: Parenteral antimalarial activity against Plasmodium vinckei in mice (Mus musculus) measured as increase in mean survival time at 15 mg/kg dose.
The subject of assay [37] is Mus musculus. Description: Oral antimalarial activity against Plasmodium vinckei vinckei in mice (Mus musculus) measured as increase in mean survival time at 50 mg/kg dose.
Assay [38] has as its system Mus musculus. Description: Oral antimalarial activity against Plasmodium vinckei in mice (Mus musculus) measured as increase in mean survival time at 100 mg/kg dose.
In assay [39] the test system is Mus musculus. Description: Oral antimalarial activity against Plasmodium vinckei in mice (Mus musculus) measured as increase in mean survival time at 150 mg/kg dose.
The test system of assay [40] is Mus musculus. The experiment in a line: Parenteral antimalarial activity against Plasmodium vinckei in mice (Mus musculus) measured as increase in mean survival time at 20 mg/kg dose.

SMILES strings stand for the structures. “And” between values parts separate entries of the source, which are not always exact repeats. Equal values may be shown once.

Take `Cn1c(=O)nc2n(-c3cc(Cl)ccc3Cl)c3ccccc3nc-2c1=O`: the Cured in [1], in assay [4], in assay [5], in [6], in assay [8] and in assay [11] was 0% throughout. For the same compound, the Cured in assay [13], in assay [18], in [19] and in assay [20] was 0% throughout. Also, the MST in [2], in [3], in assay [7], in assay [9], in [10] and in [12] was 0 days throughout. The MST in assay [14], in [15], in assay [16] and in assay [17] was 0 days each time.

Take `Cn1c(=O)nc2n(-c3ccc(Br)cc3)c3ccccc3nc-2c1=O`: the Cured in [21] is on record as 40%; in assay [22], 60%; in assay [23], 100%; in [24] it was 100%; in assay [25] it was 100%; in [26], 100%. In addition, the Cured amounted to 100% in assay [27], 60% in [28], 80% in assay [32] and 100% in assay [33]. Also, the MST was 13 days in assay [29], 14 days in [30], 2 days in [31] and 3.5 days in assay [34].

Take `Cc1cc(Cl)ccc1-n1c2nc(=O)n(C)c(=O)c-2nc2ccccc21`: the Cured in assay [1] was 0%; in [5], 0%; in [6] it was 40%; in assay [8], 0%; in [11], 0%; in assay [13], 0%. Moreover, the Cured is 60% in assay [18], 80% in assay [19] and 40% in assay [20]. The MST in assay [2] was 1.2 days; in assay [3], 1.5 days; in [7] it was -1.4 days; in assay [9], 3.2 days; in assay [10] it was -2 days; in assay [14], 0.5 days. In addition, the MST in [15] came out at 2 days; in assay [16] it was 1.5 days; in [17], 1.2 days.

On to `Cn1c(=O)nc2n(-c3ccc(Cl)cc3)c3ccccc3nc-2c1=O`, for which the MST in [35] is 1 days; in assay [36], 1 days; in assay [37] it was 1.4 days; in [31], 1.5 days; in assay [38], 2.7 days; in assay [39] it was 2.7 days. Besides, in [34], the MST worked out at 2.4 days. Also, the Cured in assay [23] is 90%; in [24], 95%; in assay [25], 75%; in [26] (20 mg/kg), 100% and 90%; in [27], 85%; in assay [28] it was 45%. For the same compound, the Cured in [32] came out at 60%; in assay [33] it was 90%.

As for `Cn1c(=O)nc2n(-c3cccc(Cl)c3)c3ccccc3nc-2c1=O`, the Cured is reported as 0% in assay [21]; 0% in [22]; 60% in assay [23]; 0% in [24]; 0% in assay [25]; 0% in [26]. For the same compound, the Cured came to 20% in [27] and 0% in assay [33]. The MST in assay [35] came to 4.3 days; in assay [36] it was 0 days; in [29], 0 days; in assay [30], 0 days; in assay [37], 0 days; in assay [38], 1.2 days. Further, the MST worked out at 0.2 days in assay [40] and 2.5 days in assay [39].

On to `Cn1c(=O)nc2n(-c3ccc(F)cc3)c3ccccc3nc-2c1=O`, for which the Cured in [21] amounted to 0%; in [22], 0%; in assay [23], 20%; in assay [24], 0%; in [25] it was 0%; in assay [26], 20%. For the same compound, the Cured in assay [27], in assay [28], in assay [32] and in [33] was 0% throughout. In addition, the MST in [35] stood at 0.6 days; in assay [36], 0.8 days; in [29], 0.2 days; in [30] it was 0.8 days; in assay [37], 0.8 days; in [31], 0 days. In addition, the MST in assay [38] is 1 days; in assay [40], 0.5 days; in assay [39], 2.3 days; in assay [34], 0 days.

As for `Cn1c(=O)nc2n(-c3cccc(F)c3)c3ccccc3nc-2c1=O`, the Cured was 0% in assay [1]; 0% in assay [4]; 0% in assay [5]; 20% in assay [6]; 0% in assay [8]; 40% in assay [11]. The Cured in assay [13] turned out to be 40%; in assay [18] it was 80%; in assay [19] it was 40%; in assay [20], 40%. Further, the MST in [2] was found to be 1.7 days; in assay [3], 0 days; in assay [7] it was 2 days; in assay [9] it was 2.5 days; in assay [10], 2.2 days; in assay [12], 0 days. For the same compound, the MST in [15] was 0 days; in [16] it was 0 days; in assay [17], 0.2 days; in [34] it was 0 days.

As for `Cn1c(=O)nc2n(-c3cccc(Br)c3)c3ccccc3nc-2c1=O`, the Cured in [21] amounted to 60%; in [22], 60%; in assay [23], 60%; in [24] it was 0%; in assay [25] it was 20%; in assay [26], 20%. The Cured was determined as 40% in [27], 0% in assay [28] and 60% in assay [33]. Besides, the MST in assay [35] was determined as 1.5 days; in assay [36], 1.3 days; in assay [29], 1 days; in assay [30], 3 days; in assay [38], 1.5 days; in assay [40], 1.4 days. The MST in assay [39] is 1 days; in assay [34] (25 mg/kg) it was 1 days and 2 days.

Source of the values: ChEMBL document CHEMBL1124085, “Flavins as potential antimalarials. 1. 10-(Halophenyl)-3-methylflavins” (1988).
